Experimental data from ChEMBL document CHEMBL1201862, “PubChem BioAssay data set” (2004).
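In this assay, cells in 96-well plates receive the compound at five concentrations for 48 hours. Endpoints are linearly interpolated between the surrounding concentrations. GI50 is the concentration that inhibits growth by half.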 The source made the active and inactive calls. Rule as the data show it: active = GI50 up to about 1.1 µM and inactive = higher.

Experiments:
Experiment in all cases: growth of human tumour cells (NCI), 48 h
HOP-18 = system: HOP-18
UO-31 = system: UO-31
DLD-1 = system: DLD-1
OVCAR-8 = system: OVCAR-8
CCRF-CEM = system: CCRF-CEM
NCI-H522 = system: NCI-H522
SK-MEL-5 = system: SK-MEL-5
EKVX = system: EKVX
A498 = system: A498
SF-295 = system: SF-295
KM12 = system: KM12
SK-OV-3 = system: SK-OV-3
SNB-75 = system: SNB-75
TK-10 = system: TK-10
XF498 = system: XF498
LXFL 529 = system: LXFL 529
Hs-578T = system: Hs-578T
MDA-MB-435 = system: MDA-MB-435
DU-145 = system: DU-145
T47D = system: T47D

Measured: GI50

O=NN1C(c2ccccc2)CNC(=O)CC1c1ccccc1 (centres undefined)
inactive: HOP-18 > 100 µM | UO-31 36.3 µM | DLD-1 44.2 µM | OVCAR-8 65.5 µM | CCRF-CEM 35.3 µM | NCI-H522 20.3 µM | SK-MEL-5 25.3 µM | EKVX 35.4 µM | A498 35.6 µM | SF-295 32.7 µM | KM12 42.9 µM | SK-OV-3 42 µM | SNB-75 20.8 µM

O=c1[nH]c(=O)n(C2CC(O)C(CO)O2)cc1C#Cc1cc(C(F)(F)F)cc(C(F)(F)F)c1 (centres undefined)
inactive: TK-10 > 100 µM | XF498 21 µM | UO-31 > 30.6 µM | DLD-1 > 29.4 µM | CCRF-CEM > 100 µM | NCI-H522 25.1 µM | SK-MEL-5 > 27.4 µM | EKVX 40.3 µM | A498 > 100 µM | SF-295 17.3 µM | KM12 > 30.8 µM | LXFL 529 > 30.1 µM | SK-OV-3 91.2 µM | SNB-75 21.1 µM

O=c1cc(-c2nc3ccccc3[nH]2)[nH]c2nc(-c3nc4ccccc4[nH]3)cc(-c3ccc(Cl)cc3)c12
inactive: TK-10 19.4 µM | UO-31 11.2 µM | OVCAR-8 28.6 µM | CCRF-CEM 24.7 µM | Hs-578T 30.5 µM | NCI-H522 6.27 µM | SK-MEL-5 15.7 µM | MDA-MB-435 15.7 µM | EKVX 23.3 µM | SF-295 21.5 µM | DU-145 32.8 µM | KM12 22 µM | T47D 14.4 µM | SK-OV-3 15.3 µM

NC12CCC(CC1=O)C2 (centres undefined)
inactive: TK-10 > 100 µM | UO-31 > 100 µM | OVCAR-8 > 100 µM | CCRF-CEM > 100 µM | Hs-578T > 100 µM | SK-MEL-5 > 100 µM | MDA-MB-435 > 100 µM | EKVX > 100 µM | SF-295 > 100 µM | DU-145 > 100 µM | KM12 > 100 µM | T47D > 100 µM | SK-OV-3 > 100 µM | SNB-75 > 100 µM

CCOC(=O)C(C(C)=O)C1CC=CC1 (centres undefined)
inactive: TK-10 > 100 µM | XF498 > 100 µM | UO-31 > 100 µM | DLD-1 > 100 µM | OVCAR-8 > 100 µM | CCRF-CEM > 100 µM | SK-MEL-5 > 100 µM | EKVX > 100 µM | SF-295 > 100 µM | KM12 > 100 µM | LXFL 529 > 100 µM | SK-OV-3 > 100 µM | SNB-75 > 100 µM

COc1ccc(C[C@H](N)C(=O)N2C[C@H](CO)C[C@H](n3cnc4c(N(C)C)ncnc43)C2)cc1
inactive: TK-10 > 100 µM | HOP-18 45.7 µM | UO-31 > 100 µM | DLD-1 > 100 µM | OVCAR-8 > 100 µM | CCRF-CEM > 100 µM | NCI-H522 > 100 µM | SK-MEL-5 > 100 µM | EKVX > 100 µM | KM12 > 100 µM | LXFL 529 > 100 µM | SK-OV-3 > 100 µM

CC(=O)N1N=C(c2ccc3ccccc3c2O)CC1c1cccs1 (centres undefined)
inactive: TK-10 25 µM | UO-31 9.95 µM | OVCAR-8 16.9 µM | CCRF-CEM 4.04 µM | Hs-578T 28.6 µM | NCI-H522 14.9 µM | SK-MEL-5 18.3 µM | MDA-MB-435 18 µM | A498 12.7 µM | SF-295 21.7 µM | DU-145 34 µM | KM12 14.4 µM | T47D 11.6 µM | SK-OV-3 44.3 µM | SNB-75 25.5 µM

O=C1CCCCN1
inactive: XF498 89.3 µM | HOP-18 232 µM | UO-31 > 1120 µM | DLD-1 879 µM | OVCAR-8 > 1120 µM | CCRF-CEM > 1120 µM | NCI-H522 > 1120 µM | SK-MEL-5 > 1120 µM | EKVX > 258 µM | A498 > 52 µM | SF-295 > 1120 µM | KM12 > 1120 µM | SK-OV-3 > 150 µM | SNB-75 > 1120 µM

CC(C)(C)[Si](C)(C)OC[C@H](/C=C\CCCC(=O)O)NC1(c2ccccc2)c2ccccc2-c2ccccc21
inactive: TK-10 24.3 µM | UO-31 19.3 µM | OVCAR-8 16.6 µM | Hs-578T 20 µM | NCI-H522 18.7 µM | SK-MEL-5 11.2 µM | MDA-MB-435 13.9 µM | EKVX 12.2 µM | A498 17.5 µM | SF-295 16.4 µM | DU-145 25.9 µM | KM12 15.5 µM | T47D 7.38 µM | SK-OV-3 20.4 µM | SNB-75 29.4 µM

O=C1CSC(C(/N=N/c2ccc(Cl)cc2)c2nc3ccccc3[nH]2)=N1 (centres undefined)
inactive: TK-10 > 100 µM | XF498 17.8 µM | UO-31 39.1 µM | DLD-1 65.5 µM | OVCAR-8 82.8 µM | CCRF-CEM 10.7 µM | NCI-H522 25.9 µM | SK-MEL-5 25.6 µM | EKVX 91.2 µM | A498 > 100 µM | SF-295 38.8 µM | KM12 45.8 µM | LXFL 529 52.6 µM | SK-OV-3 55 µM | SNB-75 25.6 µM

COc1ccc(-c2c3c(nc4nc(SC)nc(SC)c24)CCCC3)cc1OC
inactive: TK-10 38.5 µM | UO-31 37.1 µM | CCRF-CEM 21.3 µM | Hs-578T 19.1 µM | NCI-H522 31.6 µM | SK-MEL-5 80.2 µM | MDA-MB-435 54.3 µM | EKVX 70 µM | A498 > 100 µM | SF-295 57.5 µM | DU-145 > 100 µM | KM12 81.3 µM | T47D 47.6 µM | SK-OV-3 > 100 µM | SNB-75 28.2 µM
